From PubChem BioAssay (NCI) come the findings set out here.

Values joined by “and” are separate entries in the source; they are usually repeats but may differ in a detail not shown here. Identical values can stand only once.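 How tested: cells in 96-well plates exposed to compound for 48 hours at five concentrations. The concentration for 50% growth inhibition is given as GI50. The concentration for full growth arrest is given as TGI.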

Holding throughout (test): NCI-60 cell line screen, 48 h
For experiment [1], the system named is HCC-2998 colon.
The subject of experiment [2] is HCT-116 colon.
In experiment [3] the test system is HOP-92 NSCLC.
The subject of experiment [4] is NCI-H460 lung.
Experiment [5] concerns OVCAR-5 ovarian.
Experiment [6] relates to SF-268 CNS.
Experiment [7] concerns SF-295 CNS.
Experiment [8] has as its system SK-MEL-28 melanoma.
Experiment [9] concerns TK-10 renal.
Experiment [10] deals with UO-31 renal.
Experiment [11] deals with UACC-62 melanoma.

As for `NNc1nnc(CCCCCCCCc2nnc(NN)n2N)n1N`, the TGI in experiment [1], in experiment [2], in [3], in experiment [4], in [5] and in experiment [6] was above 100 µM each time. The TGI in experiment [7], in experiment [8], in experiment [9] and in experiment [10] was above 100 µM throughout.
On to `CC(=O)c1ccc(Nc2c3c(nc4ccccc24)CCCC3)cc1`, for which the TGI in experiment [1] was above 100 µM; in [2] it was above 72 µM; in [3] it was above 88.8 µM; in [4], above 66.8 µM; in [5], 97.9 µM; in experiment [6], above 100 µM. Moreover, the TGI was above 43.2 µM in experiment [7]; above 100 µM in experiment [8]; above 100 µM in experiment [9]; above 56 µM in [11]; above 67.1 µM in experiment [10].
Regarding `COC(=O)c1c(C)cccc1/C=C1\Cc2ccc(C)c(C)c2C1=O`, the TGI in experiment [1], in experiment [2], in experiment [3], in experiment [4], in [5] and in experiment [6] was above 100 µM throughout. Further, the TGI in [7], in [8], in experiment [9], in experiment [11] and in experiment [10] was above 100 µM throughout.
For `CCOc1cnc(C(O)(c2ccccc2)c2ccccc2)o1`, the TGI in experiment [1], in experiment [2], in [3], in experiment [4], in experiment [5] and in experiment [6] was above 100 µM in each case. In addition, the TGI in [7], in experiment [8], in experiment [11] and in [10] was above 100 µM throughout.
On to `COC(=O)[C@H](Cc1ccccc1)NC(=O)c1ccc(CNC(=O)/C=C/c2csc(-c3ccccc3)n2)cc1`, for which the TGI in experiment [1] is 19.4 µM; in [2], above 51.7 µM; in experiment [3] it was 9.88 µM; in [4] it was 42.6 µM; in experiment [5], above 100 µM; in [6], above 100 µM. For the same molecule, the TGI in experiment [7] stood at 25.8 µM; in experiment [8], 10.9 µM; in experiment [9] it was 45.4 µM; in experiment [11] it was 31.1 µM; in experiment [10], 27.3 µM.
For `N#Cc1ccccc1OCCOc1ccccc1C#N`, the TGI in [1], in experiment [2], in [3], in [4], in experiment [5] and in experiment [6] was above 100 µM each time. For the same molecule, the TGI in [7], in [8], in experiment [9], in [11] and in [10] was above 100 µM in each case.
`O=[N+]([O-])c1cccc2nc3ccccc3c(NCCCCCNc3c4ccccc4nc4cccc([N+](=O)[O-])c34)c12`: the TGI in experiment [1] is 0.103 µM and 0.04 µM; in [2], 0.0346 µM; in [3], 0.0973 µM; in [4], 0.164 µM; in [5] it was 0.935 µM; in experiment [7], 0.905 µM and 1.13 µM. The TGI in experiment [8] was 0.455 µM and 0.241 µM; in experiment [9] it was 0.26 µM and 1.79 µM; in [11], 0.303 µM and 0.307 µM; in experiment [10], 0.406 µM and 0.0604 µM. In addition, the GI50 in [7] was 0.0226 µM; in experiment [8] it was 0.0559 µM; in experiment [11] it was 0.0351 µM; in [10], 0.0192 µM.
Consider `O=c1cc(Nc2cccc(O)c2)[nH]c(=O)[nH]1`, for which the TGI in experiment [1], in [2], in experiment [3], in experiment [4], in [5] and in [6] was above 100 µM throughout. Moreover, the TGI in experiment [7], in [8], in experiment [9], in experiment [11] and in experiment [10] was above 100 µM each time.
`COc1ccc2nc3c(c(N)c2c1)C1CCC3C1(C)C` (configuration not stated): the TGI in experiment [1] is 31.9 µM; in experiment [2], above 100 µM; in experiment [3], 57.3 µM; in experiment [4] it was above 100 µM; in experiment [5], above 100 µM; in experiment [6] it was above 100 µM. In addition, the TGI in experiment [7] is 69.7 µM; in experiment [8], above 100 µM; in experiment [9], above 100 µM; in experiment [11] it was 58 µM; in experiment [10], above 100 µM.
Regarding `C=CCON(C(=O)OC(C)(C)C)C(C)(C)C`, the TGI in experiment [1], in experiment [2], in [3], in [4], in experiment [5] and in experiment [6] was above 100 µM each time. Further, the TGI in experiment [7], in experiment [8], in experiment [9], in [11] and in experiment [10] was above 100 µM throughout.
As for `Cc1c(C)c(S(=O)(=O)N(CCCCN)OCCCN)c(C)c2c1OC(C)(C)CC2`, the TGI in experiment [1] came to 20.8 µM; in experiment [2], 35.8 µM; in [3], 80.6 µM; in experiment [4], 41.2 µM; in experiment [5], 34.7 µM; in experiment [6], 49.6 µM. Besides, the TGI was found to be 40.6 µM in experiment [7]; 50.7 µM in experiment [8]; 37.8 µM in [9]; 72.2 µM in experiment [11]; 43 µM in experiment [10].
`CC(SC(=S)N1CCOCC1)C(=O)Nc1nnc(-c2ccc(Cl)cc2)o1` (configuration not stated): the TGI in experiment [1] is above 100 µM; in experiment [2], 67.5 µM; in experiment [3], above 100 µM; in experiment [4], above 100 µM; in experiment [5], above 100 µM; in [6] it was above 100 µM. In addition, the TGI in [8], in [9], in [11] and in experiment [10] was above 100 µM each time.
